# Several values for one entry are separate records, joined by “and”; a condition that tells them apart may be missing. Identical values can stand only once.
# Experiments:
# Type in all cases: cell-based
# Huh7 [1] = assay: Drug sensitivity, MTS cell viability assay (GI50); settings: Huh7, 96 hours, MTS
# Description: (§1) Drug sensitivity: Cell lines were screened for drug sensitivity by treatment with specified drugs 24 hours after seeding in appropriate seeding numbers into 96 well plates containing low glucose DME with 10% FBS. The drug was added to the plate in triplicate wells, and the cells are incubated in drug treated medium for 96 hours before cell viability was determined by MTS assay using CellTiter 96® Aqueous non-radioactive cell proliferation assay system (Promega, Madison, Wis. 53711 USA). The MTS assay was performed according to the manufacturer's instructions. Optical density was measured using a Bio-Tek 340 spectrophotometer (Bio-Tek, Winooski, Vt. 05404) and optical readings were then processed in Excel (Microsoft, Redmond, Wash. 98052-7329) and GraphPad Prism 5 linear regression software (GraphPad Software, La Jolla, Calif. 92037 USA) to determine concentration-response curves for calculating relative GI50s. […] The % growth inhibition of the test drug on cells were calculated as: [1−(Test Value)/(Control Value)]×100; these values were used to plot concentration-response curves, and then analyzed with linear regression software.
# K562 [2] = assay: Drug sensitivity, MTS cell viability assay (GI50)
# Description: as §1
# MDA-MB-231 = assay: Drug sensitivity, MTS cell viability assay (GI50)
# Description: as §1
# MDA-MB-468 = assay: Drug sensitivity, MTS cell viability assay (GI50); settings: Homo sapiens, MDA-MB-468, 96 h
# Description: as §1
# K562R = assay: Drug sensitivity, MTS assay, drug resistant cell line; settings: Gleevec resistant myelogenous leukemia
# Description: as §1
# NCI/ADR-RES = assay: as above; settings: multi-drug resistant uterine sarcoma
# Description: as §1
# K562 [3] = assay: Synergy of Hec1 inhibitor with cytotoxic drug (combination index, MTS)
# Description: (§2) Synergy: GI50s for selected drugs were determined and used to calculate a concentration ratio for use synergy assays with Hec1 inhibitors. Cells were treated with drugs 24 hours after being seeded in appropriate seeding numbers into 96 well plates containing low glucose DME with 10% FBS. […] Cell viability was determined by MTS assay using a CellTiter 96® Aqueous non-radioactive cell proliferation assay system (Promega, Madison, Wis. 53711 USA) according to the manufacturer's instructions. Optical density was determined using a Bio-Tek 340 spectrophotometer (Bio-Tek, Winooski, Vt. 05404) and were then processed using Excel (Microsoft, Redmond, Wash. 98052-7329) and GraphPad Prism 5 linear regression software (GraphPad Software, La Jolla, Calif. 92037 USA) to determine concentration-response curves for calculating relative GI50s. Synergy was determined by calculating a combination index value using the formula CI (combination index)=(CA,X/ICx,A)+(CB,X/ICx,B), where CA,X and CB,X are the concentrations of drug A and drug B used in combination to achieve x % drug effect. ICx,A and ICx,B are the concentrations for single agents to achieve the same effect.
# (§3) Hec1 inhibitor-responsive cancer cells used for screening were treated with a mixture of Hec1 inhibitor and select anti-cancer drug at appropriate concentration ratios and evaluated for cell viability.
# MB-231 = assay: as above
# Description: as §2, §3
# MB-468 = assay: as above
# Description: as §2, §3
# Hep3B = assay: as above; set-up: key to Combination Index: CI = (CA,X/ICx,A)+(CB,X/ICx,B) at x% drug effect
# Description: as §2, §3
# Huh7 [4] = assay: as above; set-up: key to Combination Index: CI = (CA,X/ICx,A)+(CB,X/ICx,B) at x% drug effect
# Description: as §2, §3
# [5] = system: Nek2 in resistant cell line (A549); assay: Nek2 expression by immunoblotting; settings: A549, 48 hours, immunoblot (FIG. 6B)
# Description: Immunoblots: Cell lysates were by incubation of cells in radioimmunoprecipitation assay (RIPA) buffer (50 mM Tris-HCl, pH7.4, 150 mM NaCl, 1% NP40, 0.25% DOC, 0.1% SDS, 1 mM NaVO4, 1 mM EDTA, 1 ug/ml leupeptin, 1 μg/ml pepstatin) or 2.5× sample buffer (50 mM Tris-HCl, pH6.8, 1% SDS, 2.5% BME, 7.5% Glycerol, Bromophenol blue). Tissue samples were immersed in RIPA buffer, disrupted with a homogenizer, and centrifuged to clarify. Samples were then subjected to SDS-PAGE, blotted onto immunoblotting membranes, and incubated with primary antibodies in 3% BSA-TBST. Horseradish peroxidase—conjugated secondary antibodies were used for protein detection by enhanced chemiluminescence (Millipore, Billerica, Mass. 01821 USA). The following antibodies were used for Western blotting: anti-Rb monoclonal antibody 1F8 (Abcam, Cambridge, Mass. 02139-1517 USA); anti-p53 monoclonal antibody (Santa Cruz Biotechnology, Santa Cruz, Calif. 95060 USA); anti-β-actin monoclonal antibody AC-15 (Sigma Aldrich, St. Louis, Mo., USA).
# To investigate this possibility, drug-responsive (HeLa, MDA-MB-468, HCT116) and resistant cells (A549) were synchronized by starvation and expression of Hec1 and Nek2 characterized at 1(G1), 27(G27), 32(G32), and 48(G48) hours. Differential expression patterns between Hec1 and Nek2 are apparent, indicating differences in regulation of Hec1/Nek2 pathways (FIG. 6A). […]
# [6] = in combination with doxorubicin
# [7] = in combination with Taxol (paclitaxel)
# [8] = in combination with topotecan (187.20 nM), ratio used 3.74
smiles,measurement,setting,value
"COc1ccc(Oc2cc(C)c(-c3csc(NC(=O)c4ccncc4)n3)c(C)c2)cc1 [compound 101001, N-(4-(4-(4-methoxyphenoxy)-2,6-dimethylphenyl)thiazol-2-yl)isonicotinamide]",GI50,"Huh7 [1]; Homo sapiens, Huh-7, 96 h",84.3 nM
same,GI50,"K562 [2]; K562, 96 hours, listed as 110001",40.6 nM and 43.8 nM
same,GI50,"MDA-MB-231; Homo sapiens, MDA-MB-231, 96 h",43.3 nM
same,GI50,"MDA-MB-231; MDA-MB-231, 96 hours, listed as 110001",42.5 nM
same,GI50,MDA-MB-468,33.6 nM
same,GI50,"K562R; Homo sapiens, K-562R",29.6 nM
same,GI50,NCI/ADR-RES; Homo sapiens,28.6 nM
same,Synergy,K562 [3]; [6],Yes
same,Synergy,K562 [3]; in combination with paclitaxel,Yes
same,Synergy,MB-231; in combination with paclitaxel,Yes
same,Synergy,MB-231; in combination with topotecan,Yes
same,Synergy,MB-468; [6],Yes
same,Synergy,MB-468; in combination with topotecan,Yes
same,Synergy,Hep3B; in combination with sorafenib,Antagonistic
same,Synergy,Huh7 [4]; in combination with KXO1,Additive
same,Synergy,Huh7 [4]; [6],Yes
same,Synergy,Huh7 [4]; in combination with paclitaxel,Yes
same,Synergy,Huh7 [4]; in combination with sorafenib,Antagonistic
"COCCOc1cnc(Sc2cc(C)c(-c3csc(NC(=O)c4ccncc4)n3)c(C)c2)cn1 [compound 110095, N-(4-(4-(5-(2-methoxyethoxy)pyrazin-2-ylthio)-2,6-dimethylphenyl)thiazol-2-yl)isonicotinamide]",GI50,"Huh7 [1]; Homo sapiens, Huh-7, 96 h",48.9 nM
same,GI50,Huh7 [1],35 nM
same,GI50,"K562 [2]; Homo sapiens, K562, 96 h",28.2 nM
same,GI50,"MDA-MB-231; Homo sapiens, MDA-MB-231, 96 h",16.5 nM
same,GI50,MDA-MB-468,21.1 nM
same,GI50,K562R,7.27 nM
same,GI50,"K562R; Homo sapiens, K-562R",10.4 nM
same,GI50,NCI/ADR-RES; Homo sapiens,19.5 nM
same,GI50,NCI/ADR-RES,10.4 nM
same,Combination Index,K562 [3]; [7],1.64
same,Combination Index,K562 [3]; [6],0.49
same,Synergy,K562 [3]; [6],Yes
same,Combination Index,K562 [3]; in combination with topotecan,1.38
same,Combination Index,MB-231; [7],1.21
same,Combination Index,MB-231; [6],1.26
same,Combination Index,MB-231; in combination with topotecan,0.71
same,Synergy,MB-231; in combination with topotecan,Yes
same,Combination Index,MB-468; in combination with Taxol,1.08
same,Combination Index,MB-468; [6],0.87
same,Synergy,MB-468; [6],Yes
same,Combination Index,MB-468; in combination with topotecan,0.88
same,Synergy,MB-468; in combination with topotecan,Yes
same,Combination Index,Hep3B; in combination with KX01,2.79
same,Combination Index,Hep3B; in combination with Taxol,2.40
same,Combination Index,Hep3B; [6],2.27
same,Combination Index,Hep3B; in combination with sorafenib,1.20
same,Combination Index,Hep3B; in combination with topotecan,1.48
same,Combination Index,Huh7 [4]; in combination with KX01 (KXO1),0.96
same,Combination Index,"Huh7 [4]; in combination with KX01 (KXO1), listed as 0095",1.36
same,Synergy,Huh7 [4]; in combination with KXO1,Additive
same,Combination Index,Huh7 [4]; [7],0.65
same,Combination Index,"Huh7 [4]; in combination with Taxol (paclitaxel), listed as 0095",1.05
same,Combination Index,Huh7 [4]; [6],0.76
same,Synergy,Huh7 [4]; in combination with paclitaxel,Yes
same,Combination Index,Huh7 [4]; in combination with sorafenib,1.05
same,Synergy,Huh7 [4]; in combination with sorafenib,Additive
same,Combination Index,"Huh7 [4]; in combination with sorafenib, listed as 0095",0.96
same,Combination Index,Huh7 [4]; in combination with topotecan,0.75
same,Synergy,Huh7 [4]; in combination with topotecan (50.91 nM),Yes
same,Combination Index,Huh7 [4]; [8],0.76
same,Synergy,Huh7 [4]; [8],Yes
same,Nek2 expression,[5],this effect is not seen
